Biological target: TARP γ8 dependent AMPA receptor (GluA1o-g8 fusion channel) (Homo sapiens (Human), UniProt P42261+Q8WXS5)
Experiment: Calcium flux assay (FLIPR), HEK293 cells expressing GRIA1o-CACNG8 fusion
Type: cell-based
Details: inhibition of calcium flux after 15 μM glutamate, read-out: GluR1-γ8 pIC50 (converted)
Text: This assay was used to test compounds for their ability to inhibit TARP γ8 dependent AMPA receptor activity.
An in vitro assay was used to determine the potency of test compounds as inhibitors of the glutamate response of the channel formed by GluA1o-g8. To ensure a 1:1 stoichiometry of GluA1o and g8 subunits in the expressed channel, a fusion of the cDNAs for GRIA1o and CACNG8 was used. […] A clonal cell line in HEK293 cells stably expressing this construct, with a geneticin selection marker, was generated for use in this assay. Cell expressing the GRIAlo-CACNG8 fusion construct were grown in a monolayer in 96- or 384-well microtiter plates. […] The cells were then loaded with a calcium-sensitive dye (Calcium-5 or Calcium-6, Molecular Devices) and the test compounds at a range of concentrations.
The fluorescence in each well was normalized to the fluorescence of negative and positive control wells. […] The responses to glutamate as functions of the test compound concentrations were fitted to a four-parameter logistic function. The fitted parameter corresponding to the midpoint was taken to be the potency of inhibition of the compound.

Sequence of TARP γ8 dependent AMPA receptor (GluA1o-g8 fusion channel) (P42261 other isoform, or with tags, fused parts or gaps): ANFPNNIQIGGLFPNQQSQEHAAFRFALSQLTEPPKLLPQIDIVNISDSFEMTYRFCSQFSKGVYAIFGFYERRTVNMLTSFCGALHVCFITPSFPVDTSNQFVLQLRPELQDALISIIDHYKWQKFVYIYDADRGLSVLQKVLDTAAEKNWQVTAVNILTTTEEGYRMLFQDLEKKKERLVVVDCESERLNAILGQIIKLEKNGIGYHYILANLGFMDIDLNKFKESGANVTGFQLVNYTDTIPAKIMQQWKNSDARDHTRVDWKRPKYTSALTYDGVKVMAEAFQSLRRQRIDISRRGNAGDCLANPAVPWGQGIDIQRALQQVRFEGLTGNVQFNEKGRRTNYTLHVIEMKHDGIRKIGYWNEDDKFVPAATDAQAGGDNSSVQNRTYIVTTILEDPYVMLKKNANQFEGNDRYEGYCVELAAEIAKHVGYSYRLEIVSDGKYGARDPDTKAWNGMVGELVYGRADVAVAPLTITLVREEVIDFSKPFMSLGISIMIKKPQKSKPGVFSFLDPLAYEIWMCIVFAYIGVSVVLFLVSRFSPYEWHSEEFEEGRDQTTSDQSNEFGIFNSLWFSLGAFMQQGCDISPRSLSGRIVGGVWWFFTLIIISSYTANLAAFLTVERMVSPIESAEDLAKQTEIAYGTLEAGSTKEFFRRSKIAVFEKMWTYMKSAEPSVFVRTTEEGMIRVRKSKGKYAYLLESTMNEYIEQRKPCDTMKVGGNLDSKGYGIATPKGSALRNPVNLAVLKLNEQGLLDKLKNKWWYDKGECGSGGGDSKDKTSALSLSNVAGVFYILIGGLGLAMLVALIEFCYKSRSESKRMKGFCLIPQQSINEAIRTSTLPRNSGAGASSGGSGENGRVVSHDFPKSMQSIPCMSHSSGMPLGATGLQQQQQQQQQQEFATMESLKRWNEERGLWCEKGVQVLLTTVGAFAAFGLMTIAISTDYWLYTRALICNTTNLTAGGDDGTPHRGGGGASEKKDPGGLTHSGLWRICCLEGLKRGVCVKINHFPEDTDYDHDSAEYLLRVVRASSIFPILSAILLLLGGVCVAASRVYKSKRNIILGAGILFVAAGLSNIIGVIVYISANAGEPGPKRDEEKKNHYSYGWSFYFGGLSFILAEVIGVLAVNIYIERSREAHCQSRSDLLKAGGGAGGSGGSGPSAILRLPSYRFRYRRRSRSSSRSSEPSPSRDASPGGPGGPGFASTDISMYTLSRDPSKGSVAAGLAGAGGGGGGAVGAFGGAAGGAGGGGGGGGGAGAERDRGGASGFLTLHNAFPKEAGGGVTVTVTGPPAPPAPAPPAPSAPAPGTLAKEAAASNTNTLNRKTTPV

| Structure (SMILES) | IC50 [nM] |
| --- | --- |
| O=c1[nH]c2ccc(-c3cccc(Cl)c3C(F)(F)F)cc2[nH]1 [Example 34, 5-[3-Chloro-2-(trifluoromethyl)phenyl]-1,3-dihydrobenzimidazol-2-one] | 251 |
| O=c1[nH]c2ccc(-c3ccccc3Br)cc2[nH]1 [Example 35, 5-(2-Bromophenyl)-1,3-dihydrobenzimidazol-2-one] | 251 |
| Cc1cc(Cl)cc(C)c1-c1ccc2[nH]c(=O)[nH]c2c1 [Example 37, 5-(4-Chloro-2,6-dimethyl-phenyl)-1,3-dihydrobenzimidazol-2-one] | 794 |
| Cc1cccc(C#N)c1-c1ccc2[nH]c(=O)[nH]c2c1 [Example 38, 3-Methyl-2-(2-oxo-1,3-dihydrobenzimidazol-5-yl)benzonitrile] | 501 |
| Cc1ccc(C#N)cc1-c1ccc2[nH]c(=O)[nH]c2c1 [Example 39, 4-Methyl-3-(2-oxo-1,3-dihydrobenzimidazol-5-yl)benzonitrile] | 1580 |
| N#Cc1ccc(Cl)c(-c2ccc3[nH]c(=O)[nH]c3c2)c1 [Example 40, 4-Chloro-3-(2-oxo-1,3-dihydrobenzimidazol-5-yl)benzonitrile] | 1580 |
| N#CCc1ccccc1-c1ccc2[nH]c(=O)[nH]c2c1 [Example 41, 2-[2-(2-Oxo-1,3-dihydrobenzimidazol-5-yl)phenyl]acetonitrile] | 501 |
| COC(=O)c1cccc(Cl)c1-c1ccc2[nH]c(=O)[nH]c2c1 [Example 42, Methyl 3-chloro-2-(2-oxo-1,3-dihydrobenzimidazol-5-yl)benzoate] | 501 |
| COC(=O)c1cccc(-c2ccc3[nH]c(=O)[nH]c3c2)c1Cl [Example 43, Methyl 2-chloro-3-(2-oxo-1,3-dihydrobenzimidazol-5-yl)benzoate] | 31.6 |
| COC(=O)c1ccc(Cl)c(-c2ccc3[nH]c(=O)[nH]c3c2)c1 [Example 44, Methyl 4-chloro-3-(2-oxo-1,3-dihydrobenzimidazol-5-yl)benzoate] | 316 |
| COC(=O)c1cccc(C)c1-c1ccc2[nH]c(=O)[nH]c2c1 [Example 45, Methyl 3-methyl-2-(2-oxo-1,3-dihydrobenzimidazol-5-yl)benzoate] | 251 |
| COC(=O)c1cccc(-c2ccc3[nH]c(=O)[nH]c3c2)c1C [Example 46, Methyl 2-methyl-3-(2-oxo-1,3-dihydrobenzimidazol-5-yl)benzoate] | 50.1 |
| COC(=O)c1ccc(C)c(-c2ccc3[nH]c(=O)[nH]c3c2)c1 [Example 47, Methyl 4-methyl-3-(2-oxo-1,3-dihydrobenzimidazol-5-yl)benzoate] | 501 |
| COC(=O)c1cccc(-c2ccc3[nH]c(=O)[nH]c3c2)c1OC [Example 48, Methyl 2-methoxy-3-(2-oxo-1,3-dihydrobenzimidazol-5-yl)benzoate] | 6310 |
| O=c1[nH]c2ccc(-c3c(Cl)cccc3Cl)cc2[nH]1 [Example 49, 5-(2,6-Dichlorophenyl)-1,3-dihydrobenzimidazol-2-one] | 63.1 |
| O=c1[nH]c2ccc(-c3c(Cl)cc(F)cc3Cl)cc2[nH]1 [Example 50, 5-(2,6-Dichloro-4-fluoro-phenyl)-1,3-dihydrobenzimidazol-2-one] | 158 |
| O=c1[nH]c2ccc(-c3c(Cl)cc(Cl)cc3Cl)cc2[nH]1 [Example 51, 5-(2,4,6-Trichlorophenyl)-1,3-dihydrobenzimidazol-2-one] | 501 |
| O=c1[nH]c2ccc(-c3c(F)cccc3F)cc2[nH]1 [Example 52, 5-(2,6-Difluorophenyl)-1,3-dihydrobenzimidazol-2-one] | 1000 |
| O=c1[nH]c2ccc(-c3c(F)cccc3Cl)cc2[nH]1 [Example 53, 5-(2-Chloro-6-fluoro-phenyl)-1,3-dihydrobenzimidazol-2-one] | 251 |
| Cc1cccc(F)c1-c1ccc2[nH]c(=O)[nH]c2c1 [Example 54, 5-(2-Fluoro-6-methyl-phenyl)-1,3-dihydrobenzimidazol-2-one] | 251 |
| COc1cccc(C)c1-c1ccc2[nH]c(=O)[nH]c2c1 [Example 55] | 794 |

— US10611730B2, “Benzimidazolone and benzothiazolone compounds and their use as AMPA receptor modulators” (Janssen Pharmaceutica NV, priority 2015, dated 2020)
